Results from patent US20240228507A1, “GREEN SOLVENTS FOR CHEMICAL REACTIONS” (ECOLE POLYTECHNIQUE FÉDÉRALE DE LAUSANNE (EPFL), priority 2021, published 2024).

Legend:
Format in all cases: physicochemical
[1] = Kamlet-Abboud-Taft solvatochromic parameters (dye absorption spectra); conditions: Table 1a
Source text: Determination of the Kamlet-Abboud-Taft parameters was based on the absorption spectrum of two dyes (N,N-diethyl-4-nitroaniline and 4-nitroaniline) in different solvents, that allow calculating corresponding values using known procedures (P. G. Jessop, D. A. Jessop, D. Fu and L. Phan, Green Chem., 2012, 14, 1245-1259).

[2] = Miscibility with different solvents; parameters: key: “*” indicating—not miscible; conditions: Table 1d; blank cell = miscible
[3] = Stability under acidic conditions; conditions: 0.8M HCl
[4] = Stability of DFX under basic conditions (GC-FID/GC-MS, colour change); parameters: key to Reaction (Y/N): *Reaction (Y/N) means color change compared to blank solution.; *Reaction (Y/N) means color change compared to blank solution
Experimental: To assess DFX stability under basic conditions, we tested a series of organic and inorganic bases at 80° C. and 110° C. for maximum 48 h (Table 6). Visual color change compared to a blank solution of pure DFX indicated some reactions were occurring. After 0.5 h, 24 h, 48 h of exposure, the samples were injected in GC-FID and GC-MS and the area of DFX was compared with the one in blank sample using decane as the internal standard. As a result of this experiment, we identified some potential limitations of this emerging solvent. Specifically, inorganic bases such as K2CO3, NaOH, CsCO3 led to the highest extent of degradation (maximum 21% after 48 h). Triethylamine (NEt3) caused less than 5% of degradation, but led to the formation of dark solution as well as K2CO3, NaOH, CsCO3. Probably, impurities existing in DFX (95% pure) also contribute to a color change as they could interact with bases.

[5] = Stability under hydrogenation conditions
Experimental: It is important to note that, DFX was stable under hydrogenation conditions (40 bar of H2, 70° C., 24 h), thus it can be used in reactions requiring high pressure of H2, elevated temperature, and/or long reaction time, which is a very desirable property for biomass-derived solvents.
40 bar of H2, 70° C., 24 h • 2. 40 bar of H2, 250° C., 3 h

[6] = CsCO3 (base cell blank, row r16), 80° C., 0.5 h
[7] = CsCO3 (base cell blank, row r16), 80° C., 24 h
[8] = CsCO3 (base cell blank, row r16), 80° C., 48 h
[9] = CsCO3 (base cell blank, row r17), 110° C., 0.5 h
[10] = CsCO3 (base cell blank, row r17), 110° C., 24 h
[11] = CsCO3 (base cell blank, row r17), 110° C., 48 h
[12] = CsCO3, 110° C. (row r15), 0.5 h

Question: For `C1OC[C@H]2O[C@@H]3OCO[C@@H]3[C@H]2O1` [DFX, Diformylxylose], which “Kamlet-Taft Parameters Π*” value [1] is on record?
Answer: Its value is 0.92.

Question: And the “Miscibility with Cyclohexane” value [2]?
Answer: The value was “*”.

Question: What about the “Miscibility with Hexane” value [2] of the same compound?
Answer: Its value is “*”.

Question: What about the “Miscibility with di-n-butyl ether” value [2] of the same compound?
Answer: Its value is “*”.

Question: And the DFX recovered ([3]; 70 to 95° C., no formaldehyde)?
Answer: The DFX recovered was “more than 80%”.

Question: What about the DFX stable ([3]; formaldehyde added) of the same compound?
Answer: Its DFX stable is “around 90%”.

Question: What about the DFX degradation [4, 6] of the same compound?
Answer: Its DFX degradation is 1%.

Question: What about the “Reaction (Y/N)” value [4, 6] of the same compound?
Answer: The value was “Y”.

Question: What about the DFX degradation [4, 7] of the same compound?
Answer: The DFX degradation was 4%.

Question: What about the “Reaction (Y/N)” value [4, 7] of the same compound?
Answer: The value was “Y”.

Question: And the DFX degradation [4, 8]?
Answer: Its DFX degradation is 8%.

Question: And the “Reaction (Y/N)” value [4, 8]?
Answer: Its value is “Y”.

Question: And the DFX degradation [4, 9]?
Answer: The DFX degradation was 1%.

Question: What about the “Reaction (Y/N)” value [4, 9] of the same compound?
Answer: Its value is “Y”.

Question: And the DFX degradation [4, 10]?
Answer: The DFX degradation was 7%.

Question: And the “Reaction (Y/N)” value [4, 10]?
Answer: The value was “Y”.

Question: What about the DFX degradation [4, 11] of the same compound?
Answer: Its DFX degradation is 11%.

Question: And the “Reaction (Y/N)” value [4, 11]?
Answer: Its value is “Y”.

Question: What about the DFX degradation [4, 12] of the same compound?
Answer: Its DFX degradation is 3%.

Question: And the “Reaction (Y/N)” value [4, 12]?
Answer: Its value is “Y”.

Question: What about the DFX degradation ([4]; CsCO3, 110° C. (row r15), 24 h) of the same compound?
Answer: The DFX degradation was 11%.

Question: And the “Reaction (Y/N)” value ([4]; CsCO3, 110° C. (row r15), 24 h)?
Answer: The value was “Y”.

Question: And the DFX degradation ([4]; CsCO3, 110° C. (row r15), 48 h)?
Answer: The DFX degradation was 21%.

Question: And the “Reaction (Y/N)” value ([4]; CsCO3, 110° C. (row r15), 48 h)?
Answer: The value was “Y”.

Question: What about the DFX degradation ([4]; K2CO3, 80° C., 0.5 h) of the same compound?
Answer: Its DFX degradation is 2%.

Question: And the “Reaction (Y/N)” value ([4]; K2CO3, 80° C., 0.5 h)?
Answer: Its value is “Y”.

Question: And the DFX degradation ([4]; K2CO3, 80° C., 24 h)?
Answer: Its DFX degradation is 3%.

Question: What about the “Reaction (Y/N)” value ([4]; K2CO3, 80° C., 24 h) of the same compound?
Answer: The value was “Y”.

Question: And the DFX degradation ([4]; K2CO3, 80° C., 48 h)?
Answer: Its DFX degradation is 7%.

Question: What about the “Reaction (Y/N)” value ([4]; K2CO3, 80° C., 48 h) of the same compound?
Answer: The value was “Y”.

Question: What about the DFX degradation ([4]; K2CO3, 110° C., 0.5 h) of the same compound?
Answer: Its DFX degradation is 2%.

Question: And the “Reaction (Y/N)” value ([4]; K2CO3, 110° C., 0.5 h)?
Answer: The value was “Y”.

Question: And the DFX degradation ([4]; K2CO3, 110° C., 24 h)?
Answer: Its DFX degradation is 5%.

Question: What about the “Reaction (Y/N)” value ([4]; K2CO3, 110° C., 24 h) of the same compound?
Answer: Its value is “Y”.

Question: And the DFX degradation ([4]; K2CO3, 110° C., 48 h)?
Answer: Its DFX degradation is 13%.

Question: What about the “Reaction (Y/N)” value ([4]; K2CO3, 110° C., 48 h) of the same compound?
Answer: Its value is “Y”.

Question: What about the DFX degradation ([4]; KOAc, 80° C., 0.5 h) of the same compound?
Answer: Its DFX degradation is 0%.

Question: And the “Reaction (Y/N)” value ([4]; KOAc, 80° C., 0.5 h)?
Answer: The value was “N”.

Question: And the DFX degradation ([4]; KOAc, 80° C., 24 h)?
Answer: Its DFX degradation is 2%.

Question: And the “Reaction (Y/N)” value ([4]; KOAc, 80° C., 24 h)?
Answer: Its value is “N”.

Question: What about the DFX degradation ([4]; KOAc, 80° C., 48 h) of the same compound?
Answer: Its DFX degradation is 3%.

Question: And the “Reaction (Y/N)” value ([4]; KOAc, 80° C., 48 h)?
Answer: Its value is “N”.

Question: What about the DFX degradation ([4]; KOAc, 110° C., 0.5 h) of the same compound?
Answer: Its DFX degradation is 1%.

Question: And the “Reaction (Y/N)” value ([4]; KOAc, 110° C., 0.5 h)?
Answer: Its value is “Y”.

Question: And the DFX degradation ([4]; KOAc, 110° C., 24 h)?
Answer: The DFX degradation was 3%.

Question: And the “Reaction (Y/N)” value ([4]; KOAc, 110° C., 24 h)?
Answer: Its value is “Y”.

Question: What about the DFX degradation ([4]; KOAc, 110° C., 48 h) of the same compound?
Answer: The DFX degradation was 5%.

Question: What about the “Reaction (Y/N)” value ([4]; KOAc, 110° C., 48 h) of the same compound?
Answer: Its value is “Y”.

Question: And the DFX degradation ([4]; NEt3, 80° C., 0.5 h)?
Answer: Its DFX degradation is 3%.

Question: What about the “Reaction (Y/N)” value ([4]; NEt3, 80° C., 0.5 h) of the same compound?
Answer: Its value is “Y”.

Question: And the DFX degradation ([4]; NEt3, 80° C., 24 h)?
Answer: Its DFX degradation is 4%.

Question: And the “Reaction (Y/N)” value ([4]; NEt3, 80° C., 24 h)?
Answer: Its value is “Y”.

Question: What about the DFX degradation ([4]; NEt3, 80° C., 48 h) of the same compound?
Answer: The DFX degradation was 5%.

Question: And the “Reaction (Y/N)” value ([4]; NEt3, 80° C., 48 h)?
Answer: The value was “Y”.

Question: What about the DFX degradation ([4]; NaOH, 80° C., 0.5 h) of the same compound?
Answer: The DFX degradation was 0%.

Question: And the “Reaction (Y/N)” value ([4]; NaOH, 80° C., 0.5 h)?
Answer: Its value is “Y”.

Question: What about the DFX degradation ([4]; NaOH, 80° C., 24 h) of the same compound?
Answer: The DFX degradation was 9%.

Question: What about the “Reaction (Y/N)” value ([4]; NaOH, 80° C., 24 h) of the same compound?
Answer: The value was “Y”.

Question: What about the DFX degradation ([4]; NaOH, 80° C., 48 h) of the same compound?
Answer: Its DFX degradation is 17%.

Question: What about the “Reaction (Y/N)” value ([4]; NaOH, 80° C., 48 h) of the same compound?
Answer: The value was “Y”.

Question: What about the DFX degradation ([4]; Pyridine, 80° C., 0.5 h) of the same compound?
Answer: Its DFX degradation is 0%.

Question: What about the “Reaction (Y/N)” value ([4]; Pyridine, 80° C., 0.5 h) of the same compound?
Answer: Its value is “N”.

Question: And the DFX degradation ([4]; Pyridine, 80° C., 24 h)?
Answer: Its DFX degradation is 0%.

Question: What about the “Reaction (Y/N)” value ([4]; Pyridine, 80° C., 24 h) of the same compound?
Answer: The value was “N”.

Question: And the DFX degradation ([4]; Pyridine, 80° C., 48 h)?
Answer: The DFX degradation was 0%.

Question: And the “Reaction (Y/N)” value ([4]; Pyridine, 80° C., 48 h)?
Answer: Its value is “N”.

Question: And the DFX degradation ([4]; Pyridine, 110° C., 0.5 h)?
Answer: The DFX degradation was 0%.

Question: What about the “Reaction (Y/N)” value ([4]; Pyridine, 110° C., 0.5 h) of the same compound?
Answer: Its value is “N”.

Question: What about the DFX degradation ([4]; Pyridine, 110° C., 24 h) of the same compound?
Answer: Its DFX degradation is 3%.

Question: What about the “Reaction (Y/N)” value ([4]; Pyridine, 110° C., 24 h) of the same compound?
Answer: The value was “Y”.

Question: And the DFX degradation ([4]; Pyridine, 110° C., 48 h)?
Answer: Its DFX degradation is 6%.

Question: What about the “Reaction (Y/N)” value ([4]; Pyridine, 110° C., 48 h) of the same compound?
Answer: Its value is “Y”.

Question: What about the DFX degradation ([4]; Triethylamine (NEt3)) of the same compound?
Answer: Its DFX degradation is “less than 5%”.

Question: And the “DFX degradation, highest extent” value ([4]; inorganic bases K2CO3, NaOH, CsCO3, after 48 h)?
Answer: Its value is ≤ 21%.

Question: What about the “stability under hydrogenation conditions” value ([5]; 40 bar of H2, 70° C., 24 h) of the same compound?
Answer: Its value is “remained stable”.

Question: What about the “stability under hydrogenation conditions” value ([5]; 40 bar of H2, 250° C., 3 h) of the same compound?
Answer: Its value is “remained stable”.
